Values of other authors, collected in patent US10968292B2, “Synthetic polymer film whose surface has microbicidal activity, photocurable resin composition, manufacturing method of synthetic polymer film, and sterilization method with use of surface of synthetic polymer film” (SHARP KABUSHIKI KAISHA, priority 2017, dated 2021).

Settings: monomers; YES/NO
For “polyethylene glycol (200) diacrylate [Example M282]”, the “Water Solubility” value is listed as “YES”.
For “polyethylene glycol (400) diacrylate [Example M280]”, the “Water Solubility” value is given as “YES”.

Same assay, conditions: organic acids; water at about 20° C. to about 25° C.
For O=C(O)CCCCCCC(=O)O [Suberic Acid, octanedioic acid], the “Water Solubility (solubility index)” value is given as 5 (Slightly soluble • Equal to or greater than 100 mL and less than 1000 mL).
For Cc1cc(C)c(C(=O)O)c(C)c1 [TMBA, 2,4,6-trimethylbenzoic acid], the “Water Solubility (solubility index)” value is given as 6 (Very slightly soluble • Equal to or greater than 1000 mL and less than 10000 mL).
In the case of O=P(O)(O)Oc1ccccc1 [PPA, phenylphosphate], the “Water Solubility (solubility index)” value is given as 1 (Very soluble • Less than 1 mL).
For O=C(O)CCCCCCCCCCC(=O)O [Dodecanedioic Acid, dodecanedioic acid], the “Water Solubility (solubility index)” value is listed as 7 (Practically insoluble • Not less than 10000 mL).
